# Assay results published in ChEMBL document CHEMBL5614438, “CETZOLE Analogs as Potent Ferroptosis Inducers and Their Target Identification Using Covalent/Affinity Probes” (J Med Chem, 2024).
# Calls of active or inactive are those of the source. No cut-off for these calls is given here.
# Legend:
# NCI-H522 [1] = assay: Induction of ferroptosis in human NCI-H522 cells assessed as cell viability at 6.93 uM incubated for 3 days in presence of liproxstatin-1 by methylene blue staining based spectrophotometric analysis relative to control; format: functional; settings: NCI-H522, 72 h, time 3 day, read-out: Activity
# MDA-MB-231 = assay: Cytotoxicity against human MDA-MB-231 cells assessed as reduction in cell viability incubated for 3 days by methylene blue staining based spectrophotometric analysis; format: functional; settings: MDA-MB-231, 72 h, time 3 day
# [2] = Drug localization in human HeLa cell vacuole incubated for 1 hr by TAMRA/Hoechst dye based fluorescent live cell imaging analysis; format: ADME, subcellular
# NCI-H522 [3] = assay: Cytotoxicity against human NCI-H522 cells assessed as reduction in cell viability incubated for 3 days by methylene blue staining based spectrophotometric analysis; format: functional; settings: NCI-H522, 72 h, time 3 day
# [4] = Drug localization in human HeLa cell nucleus incubated for 1 hr by TAMRA/Hoechst dye based fluorescent live cell imaging analysis; format: ADME, subcellular
# NCI-H522 [5] = assay: Induction of ferroptosis in human NCI-H522 cells assessed as reduction in cell viability at 6.93 uM incubated for 3 days in presence of liproxstatin-1 by methylene blue staining based spectrophotometric analysis; format: functional; settings: time 3.0 day
# HT-1080 [6] = assay: Cytotoxicity against human HT-1080 cells assessed as reduction in cell viability incubated for 3 days by methylene blue staining based spectrophotometric analysis; format: functional; settings: HT-1080, 72 h, time 3 day
# HT-1080 [7] = assay: Cytotoxicity against human HT-1080 cells assessed as reduction in cell viability at 1 uM incubated for 3 days by methylene blue staining based spectrophotometric analysis; format: functional; settings: time 3.0 day
# MEF = assay: Cytotoxicity against mouse MEF cells assessed as reduction in cell viability at 1 uM incubated for 3 days by methylene blue staining based spectrophotometric analysis; format: toxicity; settings: 72 h, time 3 day
# NCI-H522 [8] = assay: Induction of ferroptosis in human NCI-H522 cells assessed as increase in intracellular lipid peroxidation accumulation at 0.39 uM incubated for 6 hrs by C11 BODIPY 581/591 staining based flow cytometry; format: functional, cell-based
# NCI-H522 [9] = assay: Cytotoxicity against human NCI-H522 cells overexpressing GFP-tagged RV assessed as reduction in cell viability incubated for 3 days by methylene blue staining based spectrophotometric analysis; format: functional; settings: NCI-H522, 72 h, time 3 day
# NCI-H522 [10] = assay: Cytotoxicity against human NCI-H522 cells assessed as reduction in cell viability at 1 uM incubated for 3 days by methylene blue staining based spectrophotometric analysis; format: functional; settings: time 3.0 day
# U2OS = assay: Cytotoxicity against human U2OS cells assessed as reduction in cell viability incubated for 3 days by methylene blue staining based spectrophotometric analysis; format: functional; settings: 72 h, time 3 day
# NCI-H522 [11] = assay: Cytotoxicity against human NCI-H522 cells overexpressing GFP-tagged SLC7A11 assessed as reduction in cell viability incubated for 3 days by methylene blue staining based spectrophotometric analysis; format: functional; settings: NCI-H522, 72 h, time 3 day
# WI-38 = assay: Cytotoxicity against human WI-38 cells assessed as reduction in cell viability at 1 uM incubated for 3 days by methylene blue staining based spectrophotometric analysis; format: toxicity; settings: wi-38, 72 h, time 3 day
# NCI-H522 [12] = assay: Induction of ferroptosis in human NCI-H522 cells assessed as cell death at 0.39 uM incubated for 3 days by methylene blue staining based spectrophotometric analysis relative to control; format: functional; settings: time 3 day
# NCI-H522 [13] = assay: Induction of ferroptosis in human NCI-H522 cells assessed as cell death at 0.38 uM incubated for 3 days by methylene blue staining based spectrophotometric analysis relative to control; format: functional; settings: time 3 day
# [14] = target: Glucose-6-phosphate 1-dehydrogenase (Homo sapiens) (UniProt P11413); assay: Inhibition of G6PD in human HCT-116 cells using G6P as substrate at 100 uM incubated for 20 mins followed by G6P and […]; format: cell-based
# [15] = target: Phospholipid hydroperoxide glutathione peroxidase GPX4 (Homo sapiens) (UniProt P36969); assay: Inhibition of recombinant GPX4 (unknown origin) at 100 uM incubated for 60 mins followed by NADPH addition
# [16] = target: T1, Peroxiredoxin-4 (Homo sapiens) (UniProt Q13162); assay: Inhibition of PRDX4 (unknown origin)
# T1 sequence (whole entry): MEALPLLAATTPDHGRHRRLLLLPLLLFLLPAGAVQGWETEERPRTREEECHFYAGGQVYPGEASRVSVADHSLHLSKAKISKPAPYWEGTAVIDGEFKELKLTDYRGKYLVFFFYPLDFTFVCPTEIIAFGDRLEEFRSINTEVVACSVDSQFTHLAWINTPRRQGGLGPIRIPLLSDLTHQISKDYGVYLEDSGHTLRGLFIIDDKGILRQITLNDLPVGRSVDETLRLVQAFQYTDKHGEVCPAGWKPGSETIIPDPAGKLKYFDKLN
# [17] = target: Glucose-6-phosphate 1-dehydrogenase (Homo sapiens) (UniProt P11413); assay: Inhibition of G6PD in human HCT-116 cells using G6P as substrate assessed as reduction in enzyme activity by measuring absorbance at 100 uM incubated for 20 mins followed by G6P and […]; format: cell-based
# NCI-H522 [18] = assay: Induction of ferroptosis in human NCI-H522 cells assessed as increase in intracellular lipid peroxidation accumulation at 0.36 uM incubated for 6 hrs by C11 BODIPY 581/591 staining based flow cytometry; format: functional, cell-based
# 786-0 [19] = assay: Cytotoxicity against human 786-0 cells assessed as reduction in cell growth at 10 uM; format: functional, cell-based
# SK-OV-3 = assay: Cytotoxicity against human SK-OV-3 cells assessed as reduction in cell growth at 10 uM; format: functional, cell-based
# NCI/ADR-RES = assay: Cytotoxicity against human NCI-ADR-RES cells assessed as reduction in cell growth at 10 uM; format: functional, cell-based
# IGROV-1 = assay: Cytotoxicity against human IGROV-1 cells assessed as reduction in cell growth by measuring cell viability at 10 uM relative to control; format: functional
# K562 = assay: Cytotoxicity against human K562 cells assessed as reduction in cell growth at 10 uM; format: functional, cell-based
# UO-31 [20] = assay: Cytotoxicity against human UO-31 cells assessed as reduction in cell growth by measuring cell viability at 10 uM relative to control; format: functional
# RPMI-8226 = assay: Cytotoxicity against human RPMI-8226 cells assessed as reduction in cell growth at 10 uM; format: functional, cell-based
# OVCAR-5 = assay: Cytotoxicity against human OVCAR-5 cells assessed as reduction in cell growth at 10 uM; format: functional, cell-based
# CAKI-1 = assay: Cytotoxicity against human CAKI-1 cells assessed as reduction in cell growth at 10 uM; format: functional, cell-based
# SN12C = assay: Cytotoxicity against human SN12C cells assessed as reduction in cell growth at 10 uM; format: functional, cell-based
# SR = assay: Cytotoxicity against human SR cells assessed as reduction in cell growth at 10 uM; format: functional, cell-based
# 786-0 [21] = assay: Cytotoxicity against human 786-0 cells assessed as reduction in cell growth by measuring cell viability at 10 uM relative to control; format: functional
# OVCAR-8 = assay: Cytotoxicity against human OVCAR-8 cells assessed as reduction in cell growth at 10 uM; format: functional, cell-based
# MOLT-4 = assay: Cytotoxicity against human MOLT-4 cells assessed as reduction in cell growth at 10 uM; format: functional, cell-based
# HL-60 = assay: Cytotoxicity against human HL-60 cells assessed as reduction in cell growth at 10 uM; format: functional, cell-based
# NCI-H522 [22] = assay: Induction of cell death in human NCI-H522 cells at 10 uM incubated for 3 to 4 hrs by live cell imaging analysis relative to control; format: functional; settings: time 3-4 hrs
# NCI-H522 [23] = assay: Induction of ferroptosis in human NCI-H522 cells assessed as cell viability incubated for 3 days in presence of liproxstatin-1 by methylene blue staining based spectrophotometric analysis relative to control; format: functional; settings: time 3 day
# UO-31 [24] = assay: Cytotoxicity against human UO-31 cells assessed as reduction in cell growth at 10 uM; format: functional, cell-based
# TK-10 = assay: Cytotoxicity against human TK-10 cells assessed as reduction in cell growth at 10 uM; format: functional, cell-based
# OVCAR-4 = assay: Cytotoxicity against human OVCAR-4 cells assessed as reduction in cell growth at 10 uM; format: functional, cell-based
# NCI-H522 [25] = assay: Induction of ferroptosis in human NCI-H522 cells incubated for 3 days in presence of liproxstatin-1 by methylene blue staining based spectrophotometric analysis; format: functional, cell-based; settings: time 3.0 day
# OVCAR-3 = assay: Cytotoxicity against human OVCAR-3 cells assessed as reduction in cell growth at 10 uM; format: functional, cell-based
# NCI-H522 [26] = assay: Induction of ferroptosis in human NCI-H522 cells assessed as cell death at 0.51 uM incubated for 3 days by methylene blue staining based spectrophotometric analysis relative to control; format: functional; settings: time 3 day
# RXF 393 = assay: Cytotoxicity against human RXF 393 cells assessed as reduction in cell growth at 10 uM; format: functional, cell-based
# NCI-H522 [27] = assay: Induction of ferroptosis in human NCI-H522 cells assessed as increase in intracellular lipid peroxidation accumulation at 0.51 uM incubated for 6 hrs by C11 BODIPY 581/591 staining based flow cytometry; format: functional, cell-based
# ACHN = assay: Cytotoxicity against human ACHN cells assessed as reduction in cell growth at 10 uM; format: functional, cell-based
# CCRF-CEM = assay: Cytotoxicity against human CCRF-CEM cells assessed as reduction in cell growth at 10 uM; format: functional, cell-based
# NCI-H522 [28] = assay: Induction of ferroptosis in human NCI-H522 cells assessed as cell viability at 7.8 uM incubated for 3 days in presence of liproxstatin-1 by methylene blue staining based spectrophotometric analysis relative to control; format: functional; settings: NCI-H522, 72 h, time 3 day, read-out: Activity
# NCI-H522 [29] = assay: Induction of ferroptosis in human NCI-H522 cells assessed as reduction in cell viability at 7.8 uM incubated for 3 days in presence of liproxstatin-1 by methylene blue staining based spectrophotometric analysis; format: functional; settings: time 3.0 day
# Chain of Glucose-6-phosphate 1-dehydrogenase (Homo sapiens) (P11413 whole entry): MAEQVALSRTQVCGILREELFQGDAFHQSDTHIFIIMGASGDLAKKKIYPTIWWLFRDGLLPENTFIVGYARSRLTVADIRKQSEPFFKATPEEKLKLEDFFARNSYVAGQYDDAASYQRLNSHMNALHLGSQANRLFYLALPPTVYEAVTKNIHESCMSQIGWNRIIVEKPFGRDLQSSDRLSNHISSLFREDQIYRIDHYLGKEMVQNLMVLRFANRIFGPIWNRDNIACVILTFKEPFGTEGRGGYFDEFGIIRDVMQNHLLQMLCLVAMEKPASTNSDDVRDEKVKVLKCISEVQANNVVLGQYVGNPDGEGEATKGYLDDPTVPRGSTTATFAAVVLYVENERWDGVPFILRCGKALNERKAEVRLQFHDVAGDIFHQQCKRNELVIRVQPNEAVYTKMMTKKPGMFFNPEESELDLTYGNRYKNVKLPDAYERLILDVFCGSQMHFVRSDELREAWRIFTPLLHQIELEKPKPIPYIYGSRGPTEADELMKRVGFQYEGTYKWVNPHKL
# Chain of Phospholipid hydroperoxide glutathione peroxidase GPX4 (Homo sapiens) (P36969 whole entry): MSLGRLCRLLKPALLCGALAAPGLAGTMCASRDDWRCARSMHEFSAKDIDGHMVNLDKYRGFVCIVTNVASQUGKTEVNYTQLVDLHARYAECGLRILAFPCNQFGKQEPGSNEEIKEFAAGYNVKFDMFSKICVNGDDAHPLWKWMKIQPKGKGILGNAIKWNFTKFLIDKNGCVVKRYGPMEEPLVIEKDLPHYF
structure (smiles),measurement,setting,value
C#CCO/N=C1\CC(c2csc(C#C)n2)=C(C)C1O (stereo unspecified),viability at 6.93 µM,NCI-H522 [1],75%
same,CC50,MDA-MB-231,2700 nM
same,Drug uptake,[2],Active
same,CC50,NCI-H522 [3],2310 nM
same,Drug uptake,[4],Active
same,Activity,NCI-H522 [5],inactive
same,CC50,HT-1080 [6],1170 nM
C#Cc1nc(C2=C(C)C(OC(=O)CCC)/C(=N/OC(=O)CCC)C2)cs1 (stereo unspecified),Activity,HT-1080 [7],Active
same,CC50,MDA-MB-231,830 nM
same,Activity,MEF,Toxic
same,Activity,NCI-H522 [8],Active
same,CC50,NCI-H522 [9],280 nM
same,CC50,NCI-H522 [3],130 nM
same,Activity,NCI-H522 [10],Active
same,CC50,U2OS,5850 nM
same,CC50,NCI-H522 [11],1930 nM
same,Activity,WI-38,Toxic
same,Activity,NCI-H522 [12],~60%
same,CC50,HT-1080 [6],190 nM
C#Cc1nc(C2=C(C)C(OC(=O)CC)/C(=N/OC(=O)CC)C2)cs1 (stereo unspecified),Activity,NCI-H522 [13],~60%
same,Activity,HT-1080 [7],Active
same,CC50,MDA-MB-231,180 nM
same,Activity,MEF,Toxic
same,CC50,NCI-H522 [9],590 nM
same,CC50,NCI-H522 [3],120 nM
same,Activity,NCI-H522 [10],Active
same,CC50,U2OS,13400 nM
same,inhibition,[14],Active
same,CC50,NCI-H522 [11],2060 nM
same,inhibition,[15],Active
same,Activity,WI-38,Toxic
same,inhibition,[16],inactive
same,CC50,HT-1080 [6],150 nM
same,Activity,[17],0.13
same,Activity,NCI-H522 [18],Active
C#Cc1nc(C2=C(C)C(OC(C)=O)/C(=N/OC(C)=O)C2)cs1 (stereo unspecified),Activity,786-0 [19],inactive
same,Activity,SK-OV-3,inactive
same,Activity,NCI/ADR-RES,inactive
same,Activity,HT-1080 [7],Active
same,Activity,IGROV-1,-95%
same,CC50,MDA-MB-231,230 nM
same,Activity,MEF,Toxic
same,Activity,K562,inactive
same,Activity,UO-31 [20],-95%
same,Activity,RPMI-8226,inactive
same,Activity,OVCAR-5,inactive
same,Activity,CAKI-1,inactive
same,Activity,SN12C,inactive
same,CC50,NCI-H522 [9],260 nM
same,CC50,NCI-H522 [3],170 nM
same,Activity,NCI-H522 [10],Active
same,CC50,U2OS,7260 nM
same,Activity,SR,inactive
same,Activity,786-0 [21],-95%
same,Activity,OVCAR-8,inactive
same,Activity,MOLT-4,inactive
same,Activity,HL-60,inactive
same,Activity,NCI-H522 [22],50%
same,Activity,NCI-H522 [23],60%
same,Activity,UO-31 [24],inactive
same,Activity,TK-10,inactive
same,Activity,OVCAR-4,inactive
same,inhibition,[14],Active
same,CC50,NCI-H522 [11],1590 nM
same,Activity,NCI-H522 [25],Active
same,inhibition,[15],Active
same,Activity,OVCAR-3,inactive
same,Activity,NCI-H522 [26],~60%
same,Activity,WI-38,Toxic
same,inhibition,[16],inactive
same,Activity,RXF 393,inactive
same,CC50,HT-1080 [6],140 nM
same,Activity,[17],0.18
same,Activity,NCI-H522 [27],Active
same,Activity,ACHN,inactive
same,Activity,CCRF-CEM,inactive
C#CCCC(=O)Nc1ccc(C(=O)c2ccc(NC(=O)CO/N=C3\CC(c4csc(C#C)n4)=C(C)C3O)cc2)cc1 (stereo unspecified),CC50,MDA-MB-231,1330 nM
same,viability at 7.8 µM,NCI-H522 [28],45%
same,CC50,NCI-H522 [3],2600 nM
same,Activity,NCI-H522 [29],inactive
same,CC50,HT-1080 [6],1200 nM
